Biological target: T1, 5-HT2B receptor (Homo sapiens, UniProt P41595)
T1 construct: host or cells: CHO-K1
Test: 5-HT2B receptor binding, 3H-LSD ligand displacement assay
Settings: for inhibition at 0.01 µM: 0.01 uM compound; for inhibition at 0.1 µM: 0.1 uM compound; for inhibition at 1 µM: 1 uM compound; for inhibition at 0.001 µM: 0.001 uM compound
Experimental: 5-HT2B receptor binding (performed at Eurofins Panlabs Taiwan, Ltd.) to human receptor protein expressed in CHO-K1 cells was determined in a ligand displacement assay using ^3H-lysergic acid diethylamide (LSD) as radioligand and ketanserine as a standard reference compound. Data is presented as % displacement of radioligand at indicated compound concentrations, see Table 1 and Table 2.

T1 sequence (P41595 whole entry): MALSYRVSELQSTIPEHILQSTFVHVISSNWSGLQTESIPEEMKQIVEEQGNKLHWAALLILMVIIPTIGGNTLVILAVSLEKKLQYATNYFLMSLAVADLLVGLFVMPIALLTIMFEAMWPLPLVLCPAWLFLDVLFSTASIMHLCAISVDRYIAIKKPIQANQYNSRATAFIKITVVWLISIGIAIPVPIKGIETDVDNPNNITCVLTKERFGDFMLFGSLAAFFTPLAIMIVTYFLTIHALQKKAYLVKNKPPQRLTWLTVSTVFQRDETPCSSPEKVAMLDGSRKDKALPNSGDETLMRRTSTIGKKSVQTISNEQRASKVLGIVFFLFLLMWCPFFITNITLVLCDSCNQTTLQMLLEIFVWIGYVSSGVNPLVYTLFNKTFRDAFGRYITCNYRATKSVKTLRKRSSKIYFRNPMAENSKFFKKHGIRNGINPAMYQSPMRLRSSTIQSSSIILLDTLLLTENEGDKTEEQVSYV

## COc1ccc(C2=NN(C(=N)N)CC2C)c(OC)c1 (stereo not shown) [Example 66, 3-(2,4-Dimethoxyphenyl)-4-methyl-4,5-dihydro-1H-pyrazole-1-carboximidamide]
  inhibition at 0.01 µM: 5%
  inhibition at 0.1 µM: 12%
  inhibition at 1 µM: 41%

## COc1cc(F)ccc1C1=NN(C(=N)N)CC1C (stereo not shown) [Example 49, 3-(4-Fluoro-2-methoxyphenyl)-4-methyl-4,5-dihydro-1H-pyrazole-1-carboximidamide]
  inhibition at 0.01 µM: 11%
  inhibition at 0.1 µM: 28%
  inhibition at 1 µM: 78%

## N=C(N)N1CCC(c2cccc3ccsc23)=N1 [Example 10, 3-(Benzo[b]thiophen-7-yl)-4,5-dihydro-1H-pyrazole-1-carboximidamide]
  inhibition at 0.1 µM: 75%
  inhibition at 1 µM: 95%

## CC1CN(C(=N)N[C@@H](C)c2ccccc2)N=C1c1ccccc1O (stereo partly drawn) [Example 64, 3-(2-Hydroxyphenyl)-4-methyl-N—((S)-1-phenylethyl)-4,5-dihydro-1H-pyrazole-1-carboximidamide]
  inhibition at 0.001 µM: 23%
  inhibition at 0.01 µM: 43%

## COc1ccc(CNC(=N)N2CC(C)C(c3ccccc3O)=N2)cc1 (stereo not shown) [Example 59, 3-(2-Hydroxyphenyl)-N-(4-methoxybenzyl)-4-methyl-4,5-dihydro-1H-pyrazole-1-carboximidamide]
  inhibition at 0.001 µM: 20%
  inhibition at 0.01 µM: 74%

## COc1c(Cl)cccc1C1=NN(C(=N)NC2CCCCC2)CC1C (stereo not shown) [Example 84, 3-(3-Chloro-2-methoxyphenyl)-N-cyclohexyl-4-methyl-4,5-dihydro-1H-pyrazole-1-carboximidamide]
  inhibition at 0.001 µM: 11%
  inhibition at 0.01 µM: 63%
  inhibition at 0.1 µM: 94%

## N=C(N)N1CCC(c2ccccc2Br)=N1 [Example 4, 3-(2-Bromophenyl)-4,5-dihydro-1H-pyrazole-1-carboximidamide]
  inhibition at 1 µM: 89%
10 uM compound
  inhibition at 10 µM: 101%

## CNC(=N)N1CCC(c2ccccc2O)=N1 [Example 20, 3-(2-Hydroxyphenyl)-N-methyl-4,5-dihydro-1H-pyrazole-1-carboximidamide]
  inhibition at 0.1 µM: 41%
  inhibition at 1 µM: 89%

## COc1cc(C(F)(F)F)ccc1C1=NN(C(=N)N)CC1C (stereo not shown) [Example 68, 3-(2-Methoxy-4-(trifluoromethyl)phenyl)-4-methyl-4,5-dihydro-1H-pyrazole-1-carboximidamide]
  inhibition at 0.1 µM: 32%
  inhibition at 1 µM: 86%

## COc1ccc(NC(=N)N2CC(C)C(c3ccccc3O)=N2)cc1 (stereo not shown) [Example 105, 3-(2-Hydroxyphenyl)-N-(4-methoxyphenyl)-4-methyl-4,5-dihydro-1H-pyrazole-1-carboximidamide]
  inhibition at 0.001 µM: 46%
  inhibition at 0.01 µM: 95%
  inhibition at 0.1 µM: 106%

## COc1cc(CNC(=N)N2CC(C)C(c3ccccc3O)=N2)cc(OC)c1 (stereo not shown) [Example 61, N-(3,5-Dimethoxybenzyl)-3-(2-hydroxyphenyl)-4-methyl-4,5-dihydro-1H-pyrazole-1-carboximidamide]
  inhibition at 0.001 µM: 13%
  inhibition at 0.01 µM: 36%

## CC1CN(C(=N)N)N=C1c1c[nH]c2ccccc12 (stereo not shown) [Example 70, 3-(1H-Indol-3-yl)-4-methyl-4,5-dihydro-1H-pyrazole-1-carboximidamide]
  inhibition at 0.01 µM: 38%
  inhibition at 0.1 µM: 84%
  inhibition at 1 µM: 98%

## CNC(=N)N1CCC(c2ccccc2Cl)=N1 [Example 19, 3-(2-Chlorophenyl)-N-methyl-4,5-dihydro-1H-pyrazole-1-carboximidamide]
  inhibition at 0.1 µM: 34%
  inhibition at 1 µM: 79%

## COc1ccc(Cl)cc1C1=NN(C(=N)N)CC1C (stereo not shown) [Example 51, 3-(5-Chloro-2-methoxyphenyl)-4-methyl-4,5-dihydro-1H-pyrazole-1-carboximidamide]
  inhibition at 0.01 µM: 7%
  inhibition at 0.1 µM: 31%
  inhibition at 1 µM: 76%

## COc1ccccc1C1=NN(C(=N)Nc2ccc(F)cc2)CC1C (stereo not shown) [Example 100, N-(4-Fluorophenyl)-3-(2-methoxyphenyl)-4-methyl-4,5-dihydro-1H-pyrazole-1-carboximidamide]
  inhibition at 0.001 µM: 19%
  inhibition at 0.01 µM: 27%
  inhibition at 0.1 µM: 78%
